From ChEMBL document CHEMBL4402608 (J Med Chem, 2020)

Assays:
[1] = biological target: 5-hydroxytryptamine receptor 1A (Homo sapiens, UniProt P08908); experiment: Displacement of [3H]-Way100635 from recombinant human 5HT1A receptor stably expressed in CHO cell membranes measured after 90 mins by microbeta scintillation counting method
[2] = biological target: 5-hydroxytryptamine receptor 2A (Homo sapiens, UniProt P28223); experiment: Displacement of [3H]-Ketanserin from 5HT2A receptor (unknown origin) measured after 90 mins by microbeta scintillation counting method
[3] = biological target: 5-hydroxytryptamine receptor 2C (Homo sapiens, UniProt P28335); experiment: Displacement of [3H]-Mesulergine from recombinant human 5HT2C receptor expressed in HEK cell membranes measured after 90 mins by microbeta scintillation counting method
[4] = biological target: Sodium-dependent dopamine transporter (Homo sapiens, UniProt Q01959); experiment: Displacement of [3H]-Win35428 from human DAT expressed in stable HEK cell membranes after 90 mins by microbeta scintillation counting method
[5] = biological target: T1, Histamine H1 receptor (Homo sapiens, UniProt P35367); experiment: Displacement of [3H]-pyrilamine from human histamine H1 receptor expressed in stable HEK cell membranes after 90 mins by microbeta scintillation counting method
[6] = biological target: 5HT1A receptor (Homo sapiens, UniProt P08908); experiment: Displacement of [3H]-Way100635 from recombinant human 5HT1A receptor stably expressed in CHO cell membranes at 10 uM measured after 90 mins by microbeta scintillation counting method relative to control; conditions: probe [3H]-Way100635
[7] = biological target: 5HT1E receptor (Homo sapiens, UniProt P28566); experiment: Displacement of [3H]5-HT from recombinant human 5HT1E receptor stably expressed in HEK cell membranes at 10 uM measured after 90 mins by microbeta scintillation counting method relative to control; conditions: probe [3H]5-HT
[8] = biological target: 5HT3 receptor (5-hydroxytryptamine receptor 3A) (Homo sapiens, UniProt P46098); experiment: Displacement of [3H]GR65630 from recombinant human 5HT3 receptor transiently expressed in HEKT cell membranes at 10 uM measured after 90 mins by microbeta scintillation counting method relative to control; conditions: probe [3H]GR65630
[9] = biological target: 5HT6 receptor (Homo sapiens, UniProt P50406); experiment: Displacement of [3H]-LSD from recombinant human 5HT6 receptor stably expressed in HEK cell membranes at 10 uM measured after 90 mins by microbeta scintillation counting method relative to control; conditions: probe [3H]-LSD
[10] = biological target: 5HT7A receptor (Homo sapiens, UniProt P34969); experiment: Displacement of [3H]-LSD from recombinant human 5HT7A receptor stably expressed in HEK cell membranes at 10 uM measured after 90 mins by microbeta scintillation counting method relative to control; conditions: probe [3H]-LSD
[11] = biological target: T2, Alpha-1D adrenergic receptor (Homo sapiens, UniProt P25100); experiment: Displacement of [3H]-prazosin from recombinant human alpha1D adrenergic receptor at 10 uM measured after 90 mins by microbeta scintillation counting method relative to control; conditions: probe [3H]-prazosin
T2 sequence (P25100 whole entry): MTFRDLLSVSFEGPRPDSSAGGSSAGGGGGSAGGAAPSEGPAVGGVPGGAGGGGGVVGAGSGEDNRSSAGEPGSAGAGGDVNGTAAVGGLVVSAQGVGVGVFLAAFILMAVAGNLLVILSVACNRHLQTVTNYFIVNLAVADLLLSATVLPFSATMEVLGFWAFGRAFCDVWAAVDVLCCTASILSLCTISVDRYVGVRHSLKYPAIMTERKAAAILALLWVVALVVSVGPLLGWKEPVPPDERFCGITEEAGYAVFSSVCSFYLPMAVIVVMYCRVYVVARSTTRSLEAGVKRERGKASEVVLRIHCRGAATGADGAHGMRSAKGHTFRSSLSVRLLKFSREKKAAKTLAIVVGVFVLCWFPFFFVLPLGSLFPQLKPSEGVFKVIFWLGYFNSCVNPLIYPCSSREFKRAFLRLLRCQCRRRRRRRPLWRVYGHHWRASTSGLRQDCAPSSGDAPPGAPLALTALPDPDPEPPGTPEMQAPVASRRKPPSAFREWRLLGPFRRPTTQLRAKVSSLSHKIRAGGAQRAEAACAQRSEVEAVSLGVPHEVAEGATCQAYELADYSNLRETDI

[12] = biological target: T3, Alpha-2C adrenergic receptor (Homo sapiens, UniProt P18825); experiment: Displacement of [3H]-rauwolscine from recombinant human alpha2C adrenergic receptor stably expressed in MDCK cell membranes at 10 uM measured after 90 mins by microbeta scintillation counting method relative to control; conditions: probe [3H]-rauwolscine
T3 sequence (P18825 whole entry): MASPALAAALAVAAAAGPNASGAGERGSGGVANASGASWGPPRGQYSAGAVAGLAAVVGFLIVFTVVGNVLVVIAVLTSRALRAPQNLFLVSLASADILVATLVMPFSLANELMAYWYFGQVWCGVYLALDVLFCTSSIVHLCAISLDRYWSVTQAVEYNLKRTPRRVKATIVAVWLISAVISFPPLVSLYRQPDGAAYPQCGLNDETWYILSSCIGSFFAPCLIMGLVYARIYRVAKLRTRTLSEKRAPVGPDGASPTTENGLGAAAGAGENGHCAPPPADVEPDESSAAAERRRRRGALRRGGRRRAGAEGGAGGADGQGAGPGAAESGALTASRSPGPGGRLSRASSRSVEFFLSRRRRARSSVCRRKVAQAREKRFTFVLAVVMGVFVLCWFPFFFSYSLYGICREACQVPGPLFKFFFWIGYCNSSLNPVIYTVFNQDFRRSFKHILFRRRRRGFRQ

[13] = biological target: dopamine D2 receptor (Homo sapiens, UniProt P14416); experiment: Displacement of [3H]-N-methylspiperone from recombinant human D2 receptor stably expressed in fibroblast cell membranes at 10 uM measured after 90 mins by microbeta scintillation counting method relative to control; conditions: probe [3H]-N-methylspiperone
[14] = biological target: T1, Histamine H1 receptor; experiment: Displacement of [3H]-pyrilamine from human histamine H1 receptor expressed in stable HEK cell membranes at 10 uM after 90 mins by microbeta scintillation counting method relative to control; conditions: probe [3H]-pyrilamine
[15] = biological target: muscarinic M1 receptor (Homo sapiens, UniProt P11229); experiment: Displacement of [3H]-QNB/[3H]-NMS from human muscarinic M1 receptor expressed in stable CHO cell membranes at 10 uM after 90 mins by microbeta scintillation counting method relative to control; conditions: probe [3H]-QNB/[3H]-NMS
[16] = biological target: muscarinic M4 receptor (Homo sapiens, UniProt P08173); experiment: Displacement of [3H]-QNB/[3H]-NMS from human muscarinic M4 receptor expressed in stable CHO cell membranes at 10 uM after 90 mins by microbeta scintillation counting method relative to control; conditions: probe [3H]-QNB/[3H]-NMS
[17] = biological target: serotonin transporter (SERT) (Homo sapiens, UniProt P31645); experiment: Displacement of [3H]-citalopram from human SERT receptor expressed in stable HEK cell membranes at 10 uM after 90 mins by microbeta scintillation counting method relative to control; conditions: stable HEK cell membranes expressing human SERT, probe [3H]-citalopram
[18] = biological target: sigma 2 receptor (Homo sapiens, UniProt Q5BJF2); experiment: Displacement of [3H]-DTG from sigma 2 receptor (unknown origin) at 10 uM measured after 90 mins by microbeta counting analysis relative to control; conditions: probe [3H]-DTG

Row | SMILES | Ki [1] [nM] | inhibition at […], 10 µM [6] [%] | inhibition at […], 10 µM [7] [%] | inhibition at […], 10 µM [8] [%] | inhibition at […], 10 µM [9] [%] | inhibition at […], 10 µM [10] [%] | inhibition at […], 10 µM [11] [%] | inhibition at […], 10 µM [12] [%] | inhibition at […], 10 µM [13] [%] | inhibition at […], 10 µM [14] [%] | inhibition at […], 10 µM [15] [%] | inhibition at […], 10 µM [16] [%] | inhibition at […], 10 µM [17] [%] | inhibition at […], 10 µM [18] [%] | other results
1 | CCCN(CC[C@]1(O)C[C@H](NC(=O)c2ccc3ccccc3c2)C1)[C@H]1CCc2nc(N)sc2C1 | 708 | > 50 | < 50 | < 50 | < 50 | > 50 | > 50 | < 50 | > 50 | > 50 | < 50 | > 50 | > 50 | < 50 | Ki ([2]; read-out: Ki): 2840 nM; Ki ([3]; read-out: Ki): 762 nM; Ki ([4]; read-out: Ki): 205 nM; Ki ([5]; read-out: Ki): 110 nM
2 | CCCN[C@H]1CCc2nc(N)sc2C1 [PRAMIPEXOLE] | 6510 | > 50 | > 50 | > 50 | > 50 | > 50 | < 50 | > 50 | > 50 | < 50 | > 50 | < 50 | < 50 | < 50 | Ki [2]: Not Active; Ki [3]: Not Active; Ki [4]: Not Active; Ki [5]: Not Active
